# Results: patent publication US20210293825A1, “METHODS FOR PRECISION THERAPEUTIC TARGETING OF HUMAN CANCER CELL MOTILITY AND KITS THEREOF” (UNITED STATES GOVERNMENT AS REPRESENTED BY THE DEPARTMENT …, priority 2018, published 2021)
# How the values were obtained:
# PC3 or PC3M cells = experiment: Scratch wound healing assay with siRNA knockdown; type: cell-based, human
# Procedure: HEK293T cells were transfected with 1 of 420 different protein kinases, treated with 10 μM KBU2046 (N=5 replicates) or vehicle control (N=5) for three days, and LUMIER assays performed. The N=17 kinases that gave significant findings (Student's t-test <0.05) in the same direction in each of two separate experiments are depicted. Each separate treatment and kinase condition in each of two separate experiments was conducted in replicates of N=5. […] FIGS. 6c and 6d show the results of the wound healing assay. PC3 cells were transfected with siRNA targeting RAF1 (si-Raf1) or non-targeting siRNA (si-control), treated with KBU2046 or vehicle as above, and RAF1 protein measured by Western blot (c) and effects upon wound healing measured (d). […] Purified recombinant HSP90β, CDC37, and RAF1 were combined with KBU2046, as indicated, incubated in an in vitro kinase assay for the indicated times, and Western blot for RAF1-Ser^338 phosphorylation performed. FIGS. 6f and 6g show the effect on HSP90β/CDC37 heterocomplex formation and function in vitro. Purified recombinant HSP90β, CDC37, RAF1, SGK3 or MAP3K6 were combined and treated with KBU2046 or vehicle control, as indicated, incubated in an in vitro kinase assay for the indicated times, and Western blot performed, as denoted. Experiments were repeated at separate times at least once, with similar results.
# FIGS. 24b-d show the results of the wound healing assay. PC3 or PC3M cells were treated+/−KBU2046 and with siRNA to the denoted gene, or with non-targeting control siRNA (NT), and effects upon transcript (b) or protein expression (c) measured by qRT/PCR or Western blot, respectively. For qRT/PCR, values are expressed as the target gene/GAPDH ratio, normalized to that of NT/−KBU2046 cells. Under the same conditions, wound healing assays were performed (d).
# Scratch Wound Assays. Cells were transfected with the indicated si-RNA constructs per manufacture protocol (GE-Dharmacon), cultured 48 hrs with 10 μM KBU2046 or vehicle, and scratch wound assay performed as described (Xiao, X. et al., Oncotarget 6, 3225-39 (2015)). […]
# [1] = tested on: estrogen-responsive genes in MCF-7 cells; experiment: Induction of estrogen-responsive genes (qRT/PCR); type: cell-based, human
# From the text: FIG. 1a is a schematic flow of probe synthesis and development strategy. […] Values are mean±SEM of a single experiment in replicates of N=4, with similar findings in multiple separate experiments (also N=4). […] Values are mean±SEM of a single experiment in replicates of N=24, with similar findings in a separate experiment (also N=24). *Denotes Student's t test P value <0.05, compared to controls. […] Values are mean±SEM from N>2 separate experiments, each in replicates of N=3. […] Values are the mean±SD number of total, CFU-GM, CFU-GEMM or BFU-E colonies at 14 days after treatment with KBU2046, from a single experiment in replicates of N=2. […] Values are the mean±SD of a single experiment, with similar results seen in a separate experiment, both in replicates of N=2.
# Quantitative Reverse Transcriptase Polymerase Chain Reaction. RNA was isolated and qRT/PCR was performed as described (Ding, Y. et al., J Biomol Tech 18, 321-30 (2007)), analyzed by the 2^−ΔΔCt method (Livak, K. J. et al., Methods 25, 402-8 (2001)), using primer/probes sets (ABI), HSP90α (Hs00743767_sH), HSP90β (Hs00427665_g1), trefoil factor 1 (TFF1; Hs00907239 ml), cathepsin D (CTSD; Hs00157205_m1), progesterone receptor (PGR; Hs01556702 ml) and GAPDH (Hs99999905_m1). Assays were repeated, each in replicates of N=2.
# PC3-luc cells = experiment: Prostate cancer intracardiac injection bone metastasis model; type: in vivo, athymic mice
# Procedure: Athymic mice were given intracardiac (IC) injections of PC3-luc cells on day 0 under ultrasound guidance, and underwent weekly IVIS imaging starting seven days post injection. Cohorts of N=20 control, N=20 Pre (treatment from 3 days prior to IC injection through end of experiment), N=10 Pre7Stop (treatment from 3 days prior to IC injection through 7 days post IC injection) and N=10 Post treatment (treatment from 3 days post-IC injection through end of experiment) mice were dosed with 80 mg/kg KBU2046 daily by oral gavage and mock treated with vehicle all other times. FIG. 3c depicts whole body and FIG. 3b depicts mandible flux as determined from weekly IVIS imaging. […] Arrows denote areas of bone destruction in controls, and corresponding areas in the Pre mouse. Student's t test (b-c) and Fisher's exact test (d) P values between the denoted cohorts are shown.
# Prostate cancer: intracardiac (IC) injection. IC injection of 4.0×10^5 PC3-Luc cells into male 6-8 week old athymic mice with IVIS imaging was performed as described (Chu, K. et al., Mol Cancer Res 6, 1259-67 (2008)), and was done so under ultrasound guidance (FIG. 15). Mice were treated pre- and/or post-IC injection, as indicated. The pretreatment cohort emulates a metastasis naïve model wherein cell motility is required in order for cells to invade into a distant organ, in this case the jaw bone, for which this model is widely used. If KBU2046 were inhibiting cell motility, then in this model it would act to inhibit metastasis formation. In contrast, with the post implantation cohort, cells have already completed invasion into the jaw bone, and distant metastasis have been established. […] IVIS imaging was performed 30 minutes after IC injection to confirm systemic distribution of cells, and thereafter weekly for 4 weeks starting seven days post injection, allowing real time tracking of metastasis development and growth. Computed Tomograpgy (CT) (Inveon, Seimens) radiographic imaging was performed on some mice, as indicated, and resultant images analyzed in a blinded fashion using Inveon Research Workplace 4.2 visualization/analysis software and ImageJ. […] Experimental groups were randomly assigned to cages prior to the initiation of the study. CT images were analyzed in a blinded fashion to determine total bone loss using both the Invenon Research Workplace 4.2 visualization/analysis software and ImageJ. Specifically, to assess bone loss in an unbiased manor, an operator randomly loaded images into the system and blocked out identifying information prior to analysis by two separate blinded individuals.
# [2] = Pre cohort, 80 mg/kg daily oral gavage
compound,measurement,setting,value
"O=C1c2ccccc2OCC1c1ccc(F)cc1 (racemic) [KBU2046, (±)-3(4-fluorophenyl)chroman-4-one]",efficacy on motility,PC3 or PC3M cells; SGK3 knockdown,still retained efficacy
same,RAF1 protein expression levels,"PC3 or PC3M cells; Western blot, cells",did not alter RAF1 protein expression levels
same,efficacy on motility,PC3 or PC3M cells; knockdown of RAF1 or of RIPK1,mitigated KBU2046 efficacy
same,activation of estrogen-responsive genes,[1],did not activate estrogen-responsive genes
same,metastasis to the total body and to the jaw,"PC3-luc cells; Post cohort, treatment from 3 days post-IC injection",do not differ from control mice
same,jaw metastasis,PC3-luc cells; Pre7Stop cohort,jaw metastasis is significantly decreased compared to control
same,total body metastasis,"PC3-luc cells; Pre7Stop cohort, compared to control and Post cohorts",total body metastasis is significantly decreased
same,metastasis to the mandible,PC3-luc cells; [2],decreased metastasis to the mandible
same,total metastatic burden (whole body flux),PC3-luc cells; [2],significant decrease in total metastatic burden
same,"destruction of bone (mandible, Computed Tomography)","PC3-luc cells; Pre cohort, week 4",decreased destruction of bone
